Data on three molecules can be found in US11897848B2, “Crystalline forms of ozanimod and processes for preparation thereof” (RECEPTOS LLC, priority 2016, dated 2024).

Format in all cases: physicochemical
A short description of data set [1]: Hygroscopicity assessment by dynamic vapor sorption (DVS). As to conditions: for Weight Gain under 80% RH: DVS, 25° C.; for Hygroscopicity according to the criteria of hygroscopicity: based on weight gain under 80% RH. Here is the method:
Dynamic Vapor Sorption (DVS) is measured via an SMS (Surface Measurement Systems Ltd.) intrinsic DVS. Typical Parameters for DVS test are as follows: • Temperature: 25° C. • Gas and flow rate: N2, 200 mL/min • dm/dt: 0.002%/min • RH range: 0% RH to 95% RH
Dynamic vapor sorption (DVS) was applied to test hygroscopicity of Form CS9 with about 10 mg of samples. The DVS plot was substantially as depicted in FIG. 14.
Dynamic vapor sorption (DVS) was applied to test hygroscopicity of Form CS10 with about 10 mg of samples. The DVS plot is substantially as depicted in FIG. 15.
Dynamic vapor sorption (DVS) was applied to test hygroscopicity of Form CS11 with about 10 mg of samples. The DVS plot is substantially as depicted in FIG. 16.

Data set [2] can be described thus: Solubility assessment in H2O, saturated solution measured by HPLC. Here is the method:
Form CS9 of ozanimod was suspended into H2O to obtain saturated solution. After being equilibrated for 1 h, 4 h and 24 h, concentrations of the saturated solutions were measured by HPLC.

A short description of data set [3]: Particle size distribution test (laser particle size analyzer, wet process). The settings on record: for MV (average particle size calculated by volume): dispersion medium Isopar G; for D10 / D50 / D90: volume distribution. Here is the method:
The particle size distribution test in the present disclosure is acquired by the S3500 laser particle size analyzer of Microtrac. Microtrac S3500 is equipped with the SDC (Sample Delivery Controller). The test is carried out by wet process, and the dispersion medium is Isopar G The parameters are as follow:
Certain amount of samples of Form CS9, Form CS10 and Form CS11 of ozanimod were taken for particle size distribution test.
The abbreviations used in the invention are explained as follows: • Mv: Average particle size calculated by volume. • D10: particle size which accounts for 10% of the particle size distribution (volume distribution). • D50: particle size which accounts for 50% of the particle size distribution (volume distribution), also known as the median diameter. • D90: particle size which accounts for 90% of the particle size distribution (volume distribution).

Data set [4] is described as follows: Stability assessment in chamber with controlled temperature and relative humidity (XRPD, HPLC). The settings on record: for Stability (verdict in words): after storage for 2 weeks. The procedure: Sample of Form CS10 was placed in chamber with controlled temperature and relative humidity at 40° C./75% RH for 2 weeks, and then the solids were sampled for XRPD test. The XRPD pattern overlay was substantially as depicted in FIG. 23 (from top to bottom: XRPD pattern of ozanimod Form CS10 before and after being stored under 40° C./75% RH for 2 weeks).
Two samples of Form CS11 of ozanimod were placed in chamber with controlled temperature and relative humidity at 25° C./60% RH and 40° C./75% RH for 2 weeks. XRPD and HPLC were used to test the crystalline form and chemical purity. The XRPD overlay pattern was substantially as depicted in FIG. 24 (from top to bottom: XRPD pattern of ozanimod Form CS11 before and after being stored under 25° C./60% RH and 40° C./75% RH for 2 weeks).

≈ marks a conversion by molar mass, not a printed value.

For orientation: solubility means the dissolved amount per volume that the medium holds. Read a high solubility as much dissolved substance.

With `CC(C)Oc1ccc(-c2nc(-c3cccc4c3CC[C@@H]4NCCO)no2)cc1C#N` [Form CS9, ozanimod], in data set [1], the “Weight Gain under 80% RH” value turned out to be 2.88% and the “Hygroscopicity according to the criteria of hygroscopicity” value (shortened to “Hygroscopicity according to the criteria”) is recorded as “hygroscopic”. For the same molecule, the “Solubility in water (verdict in words)” value in data set [2] is “good solubility in water”. The molecule further registered a solubility at 1 h in data set [2] (water, thermodynamic from solid, equilibrated for 1 h) of 470 µg/mL (≈ 1160 µM). In addition, the solubility at 4 h in data set [2] (water, thermodynamic from solid, equilibrated for 4 h) came out at 360 µg/mL (≈ 890 µM). Further, in data set [3], the “MV (average particle size calculated by volume)” value is on record as 339.9 μm, the D10 came to 50.97 μm, the D50 is recorded as 284.3 μm and the D90 was determined as 728.7 μm.

`CC(C)Oc1ccc(-c2nc(-c3cccc4c3CC[C@@H]4NCCO)no2)cc1C#N` [Form CS10, ozanimod]: in data set [1], the “Weight Gain under 80% RH” value was determined as 1.02% and the “Hygroscopicity according to the criteria” value is on record as “slightly hygroscopic”. Also, in data set [3], the “MV (average particle size calculated by volume)” value is recorded as 317.2 μm, the D10 is 65.87 μm, the D50 came to 254.8 μm and the D90 was 669.0 μm. Further, the “Crystalline form change by XRPD” value in data set [4] (40° C./75% RH for 2 weeks) was “No form change”. In data set [4], the “Stability (verdict in words)” value is reported as “good stability”.

`CC(C)Oc1ccc(-c2nc(-c3cccc4c3CC[C@@H]4NCCO)no2)cc1C#N` [Form CS11, ozanimod]: in data set [1], the “Weight Gain under 80% RH” value was found to be 0.57% and the “Hygroscopicity according to the criteria” value is listed as “slightly hygroscopic”. For the same molecule, in data set [3], the “MV (average particle size calculated by volume)” value is on record as 137.7 μm, the D10 came to 27.13 μm, the D50 is 110.4 μm and the D90 turned out to be 286.6 μm. Moreover, in data set [4] (25° C./60% RH for 2 weeks), the “Chemical purity change by HPLC” value is “No form change and obvious purity decrease”; the “Crystalline form change by XRPD” value is “No form change”. For the same molecule, in data set [4] (40° C./75% RH for 2 weeks), the “Chemical purity change by HPLC” value is “No form change and obvious purity decrease”; the “Crystalline form change by XRPD” value was “No form change”. In data set [4], the “Stability (verdict in words)” value is reported as “good stability”.
